Reference: US20200085789A1, “USE OF A PROTEASOME INHIBITOR FOR THE TREATMENT OF CENTRAL NERVOUS SYSTEM (CNS) CANCERS” (Celgene International II Sàrl, priority 2017, published 2020)

What was measured:
[1] = Adverse events and DLT, MRZ with TMZ and RT in newly diagnosed WHO Grade IV malignant glioma; format: in vivo, human
Procedure: The clinical trial was a dose-escalation study (Stage 1, MRZ+TMZ+RT or MRZ+TMZ) consisting of two arms—concomitant and adjuvant—in each, MRZ added to standard of care at increasing IV doses in a 3+3 design, and a dose expansion study at RP2D (Stage 2, RP2D MRZ+TMZ+RT followed by RP2D MRZ+TMZ) first with concomitant and then with adjuvant standard of care.
In the experimental Stage 1 Concomitant Treatment (MRZ+TMZ+RT) Drug MRZ dose ranges from 0.55 mg/m^2 to 1.0 mg/m^2 given IV over 10 minutes on days 1, 8, 15, 29, and 36 during concomitant treatment. MRZ dose ranges from 0.55 to 1.0 mg/m^2 given IV over 10 minutes on Days 1, 8, 15 every 28 days during adjuvant treatment. TMZ will be administered once daily, 7 days/week, for 6 weeks, starting on Day 1, at a dose of 75 mg/m^2 during concomitant treatment. TMZ will be administered once daily on days 1-5 every cycle (28 day cycles, up to 12 cycles), dose range 150 to 200 mg/m^2 during adjuvant treatment. Radiation (RT) will be administered once daily 5 days/week, for 30 doses over 6 weeks to a total dose of 60 Gy, staring on Day 1 during concomitant treatment. Patients who complete concomitant treatment may continue on to adjuvant treatment, in the adjuvant cohort RT and TMZ treatment is received outside of protocol therapy.
In the experimental Stage 2 dose expansion 18 additional evaluable patients were enrolled in a cohort in which concomitant treatment (MRZ+TMZ+RT) is followed by adjuvant treatment (MRZ+TMZ) to confirm the MTD for each treatment regime as determined in the dose-escalation (Stage 1), and to assess preliminary activity of the recommended Phase 2 dose (RP2D, 0.8 mg/m^2). Table 44 and Table 45 give the treatment parameters of the present study and demographics of study participants.
Methods: Patients enrolled in separate concomitant (TMZ+RT+MRZ at 0.55, 0.7, 0.8, and 1.0 mg/m^2 dose levels DL) and adjuvant (TMZ+MRZ) cohorts in 3+3 design, followed by dose-expansion at the RD (concomitant followed by adjuvant). MRZ (10 min IV infusion): Concomitant (42 days (D), on D1, 8, 15, 29, 36; Adjuvant (28D-cycle) on D1, 8, 15.
Outcome Measures: Primary Outcome Measures: (1) Determine MRZ maximum tolerated dose (MTD) and recommended phase 2 dose (RP2D) for both concomitant treatment (MRZ+TMZ+RT) and adjuvant treatment (MRZ+TMZ). Time Frame: 42-day concomitant treatment and 28-day Cycle 1 adjuvant treatment. Description: Assess dose-limiting toxicities (DLTs) in each dose-escalation arm.
Methods: Patients enrolled in separate concomitant (TMZ/RT+MRZ) and adjuvant (TMZ+MRZ) treatment cohorts in dose-escalation (3+3 design, MRZ at 0.55, 0.7, 0.8, and 1.0 mg/m^2), followed by dose-expansion at the RD in concomitant followed by adjuvant treatment. MRZ (10 min IV infusion): Concomitant Day 1, 8, 15, 29, 36; Adjuvant (28D-cycle) Day 1, 8, 15.

[2] = test system: WHO Grade IV malignant glioma; assay: Progression free survival (PFS) and overall survival (OS), MRZ ± BEV in recurrent grade IV malignant glioma patients; format: in vivo, human
Procedure: Tumor response was measured every other cycle by RANO criteria.
The drugs were infused on 28-Day Cycles. Tumor response is assessed every other cycle by RANO criteria.
Tumor response, including PD activity, progression-free survival (PFS), and overall survival (OS) will be assessed. Tumor response will be assessed by the Investigators using RANO 2010 criteria. […] Endpoints of response based on tumor assessments will be calculated for subjects who received at least 3 doses of MRZ and had at least 1 post-dose tumor evaluation.
Tumor response including PD, progression-free survival (PFS), and overall survival (OS) will be assessed by the Investigators using RANO 2010 criteria.

[3] = Cohorts 1-3 0.55, 0.7, 0.8 mg/m^2 (21)
[4] = all grades, Cohort 2 0.7 mg/m^2 (9), concomitant and adjuvant combined
[5] = all grades, Cohort 3 0.8 mg/m^2 (6), concomitant and adjuvant combined
[6] = all grades, Cohort 4 1.0 mg/m^2 (12), concomitant and adjuvant combined
[7] = all grades, all dose-escalation cohorts 0.55-1.0 mg/m^2, N = 33, concomitant and adjuvant combined

C[C@@]12OC(=O)[C@]1([C@@H](O)[C@@H]1C=CCCC1)NC(=O)[C@@H]2CCCl [MRZ, marizomib]
Most common TEAEs (≥20% patients) ([1]; 33 patients, dose-escalation): fatigue, nausea, vomiting, hallucination, ataxia, headache | Anorexia, Total # Patients with Grade 3 Event [1]: 0 | Ataxia, Total # Patients with Grade 3 Event [1]: 3 | Confusion, Total # Patients with Grade 3 Event [1]: 2 | Constipation, Total # Patients with Grade 3 Event [1]: 0 | Diarrhea, Total # Patients with Grade 3 Event [1]: 0 | Dizziness, Total # Patients with Grade 3 Event [1]: 0 | Fatigue, Total # Patients with Grade 3 Event [1]: 2 | Hallucination, Total # Patients with Grade 3 Event [1]: 0 | Headache, Total # Patients with Grade 3 Event [1]: 2 | Nausea, Total # Patients with Grade 3 Event [1]: 0 | Vomiting, Total # Patients with Grade 3 Event [1]: 0 | Anorexia, Total # Patients with Grade 3 Event [1, 3]: 0 | Ataxia, Total # Patients with Grade 3 Event [1, 3]: 1 | Confusion, Total # Patients with Grade 3 Event [1, 3]: 0 | Constipation, Total # Patients with Grade 3 Event [1, 3]: 0 | Diarrhea, Total # Patients with Grade 3 Event [1, 3]: 0 | Dizziness, Total # Patients with Grade 3 Event [1, 3]: 0 | Fatigue, Total # Patients with Grade 3 Event [1, 3]: 5 | Hallucination, Total # Patients with Grade 3 Event [1, 3]: 1 | Headache, Total # Patients with Grade 3 Event [1, 3]: 0 | Nausea, Total # Patients with Grade 3 Event [1, 3]: 0 | Vomiting, Total # Patients with Grade 3 Event [1, 3]: 1 | patients with at least one Grade ≥3 TEAE ([1]; MRZ 0.7 mg/m^2, of 9 (Example 6)): 2 | patients with Grade 3 TEAEs ([1]; MRZ 0.7 mg/m^2, of 9, as of Feb. 1, 2018): 4 | patients with at least one Grade ≥3 TEAE ([1]; MRZ 0.8 mg/m^2, of 6 (Example 6)): 1 | patients with Grade 3 TEAEs ([1]; MRZ 0.8 mg/m^2, of 6, as of Feb. 1, 2018): 2 | patients with DLTs ([1]; MRZ 1.0 mg/m^2, concomitant and adjuvant): 5/12 | patients with at least one Grade ≥3 TEAE ([1]; MRZ 1.0 mg/m^2, of 12): 11 | tolerability ([1]; MRZ with SOC in ndGBM): well tolerated | Anorexia, incidence of treatment-related adverse event [1, 4]: 3 | Ataxia, incidence of treatment-related adverse event [1, 4]: 1 | Confusion, incidence of treatment-related adverse event [1, 4]: 4 | Constipation, incidence of treatment-related adverse event [1, 4]: 6 | Diarrhea, incidence of treatment-related adverse event [1, 4]: 2 | Dizziness, incidence of treatment-related adverse event [1, 4]: 2 | Fatigue, incidence of treatment-related adverse event [1, 4]: 8 | Hallucination, incidence of treatment-related adverse event [1, 4]: 4 | Headache, incidence of treatment-related adverse event [1, 4]: 3 | Nausea, incidence of treatment-related adverse event [1, 4]: 4 | Vomiting, incidence of treatment-related adverse event [1, 4]: 4 | Anorexia, incidence of treatment-related adverse event [1, 5]: 2 | Ataxia, incidence of treatment-related adverse event [1, 5]: 1 | Confusion, incidence of treatment-related adverse event [1, 5]: 1 | Constipation, incidence of treatment-related adverse event [1, 5]: 2 | Diarrhea, incidence of treatment-related adverse event [1, 5]: 2 | Dizziness, incidence of treatment-related adverse event [1, 5]: 1 | Fatigue, incidence of treatment-related adverse event [1, 5]: 5 | Hallucination, incidence of treatment-related adverse event [1, 5]: 2 | Headache, incidence of treatment-related adverse event [1, 5]: 2 | Nausea, incidence of treatment-related adverse event [1, 5]: 5 | Vomiting, incidence of treatment-related adverse event [1, 5]: 4 | Anorexia, incidence of treatment-related adverse event [1, 6]: 1 | Ataxia, incidence of treatment-related adverse event [1, 6]: 4 | Confusion, incidence of treatment-related adverse event [1, 6]: 3 | Constipation, incidence of treatment-related adverse event [1, 6]: 4 | Diarrhea, incidence of treatment-related adverse event [1, 6]: 1 | Dizziness, incidence of treatment-related adverse event [1, 6]: 1 | Fatigue, incidence of treatment-related adverse event [1, 6]: 8 | Hallucination, incidence of treatment-related adverse event [1, 6]: 4 | Headache, incidence of treatment-related adverse event [1, 6]: 4 | Nausea, incidence of treatment-related adverse event [1, 6]: 5 | Vomiting, incidence of treatment-related adverse event [1, 6]: 4 | Anorexia, treatment-related adverse event, total in parentheses [1, 7]: Anorexia (8) | Ataxia, treatment-related adverse event, total in parentheses [1, 7]: Ataxia (8) | Confusion, treatment-related adverse event, total in parentheses [1, 7]: Confusion (9) | Constipation, treatment-related adverse event, total in parentheses [1, 7]: Constipation (11) | Diarrhea, treatment-related adverse event, total in parentheses [1, 7]: Diarrhea (7) | Dizziness, treatment-related adverse event, total in parentheses [1, 7]: Dizziness (6) | Fatigue, treatment-related adverse event, total in parentheses [1, 7]: Fatigue (26) | Hallucination, treatment-related adverse event, total in parentheses [1, 7]: Hallucination (11) | Headache, treatment-related adverse event, total in parentheses [1, 7]: Headache (10) | Nausea, treatment-related adverse event, total in parentheses [1, 7]: Nausea (17) | Vomiting, treatment-related adverse event, total in parentheses [1, 7]: Vomiting (12) | RP2D / recommended dose (RD) of MRZ ([1]; with TMZ and RT (SOC), ndGBM): 0.8 mg/m^2 | PFS Median ([2]; All Patients): 1.8 | 6 mo Overall Survival ([2]; All Pts): 64% | 9 mo Overall Survival ([2]; All Pts): 64% | 6 mo Overall Survival ([2]; Methylated MGMT Promoter): 83% | 9 mo Overall Survival ([2]; Methylated MGMT Promoter): 83% | PFS Median ([2]; Methylated MGMT Promoter): 1.7 | OS 6 mo ([2]; Monotherapy, Methylated (7)): 83% | OS 9 mo ([2]; Monotherapy, Methylated (7)): 83% | OS Median ([2]; Monotherapy, Methylated (7)): Undefined | PFS 3 mo ([2]; Monotherapy, Methylated (7)): 40% | PFS Median ([2]; Monotherapy, Methylated (7)): 1.7 months | OS 6 mo ([2]; Monotherapy, Unmethylated (18)): 65% | OS 9 mo ([2]; Monotherapy, Unmethylated (18)): 65% | OS Median ([2]; Monotherapy, Unmethylated (18)): Undefined | PFS 3 mo ([2]; Monotherapy, Unmethylated (18)): 20% | PFS Median ([2]; Monotherapy, Unmethylated (18)): 1.9 months | median overall survival ([2]; Part II monotherapy, 16 events, median follow-up 9.2 months): 11.4 months | OS 6 mo % ([2]; Part II, N = 30, 14 censored): 59% | OS 9 mo % ([2]; Part II, N = 30, 14 censored): 54% | OS 12 mo % ([2]; Part II, N = 30, 14 censored): 17% | 6 mo Overall Survival ([2]; Unmethylated MGMT Promoter): 65% | 9 mo Overall Survival ([2]; Unmethylated MGMT Promoter): 65% | PFS Median ([2]; Unmethylated MGMT Promoter): 1.9
